Data taken from the supplement of paper PMC10307832.

Experiments:
Assay in all cases: relative viability (nuclei count vs DMSO), 5 days (fraction); higher = more cells survive
DM3189 = compound: C1CN(CCN1)C2=CC=C(C=C2)C3=CN4C(=C(C=N4)C5=CC=NC6=CC=CC=C56)N=C3 [DM3189]
Procedure, shortened: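 Lung cancer cell lines in 1536-well plates were kept overnight at 37 °C, then pinned with five library-drug doses (not always all listed) spaced by √10 on vehicle-anchored plates. After 5 days without medium change, cells were fixed, permeabilised and Hoechst-stained in one step, imaged at 4×, and nuclei were counted with MetaXpress. Viability is treated-well nuclei divided by vehicle-well nuclei, taken as the median over plates. Plates passed only with control CV below 25% and at least one doubling.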

DM3189 + Vorinostat = compound: C1CN(CCN1)C2=CC=C(C=C2)C3=CN4C(=C(C=N4)C5=CC=NC6=CC=CC=C56)N=C3 [DM3189] + O=C(CCCCCCC(=O)Nc1ccccc1)NO [Vorinostat] (partner 1 µM)
Procedure, shortened: (§1)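 Relative viability equals treated-well nuclei counts divided by vehicle-well nuclei counts. Counts came from 4× images of lung cancer cell lines grown in 1536-well plates for 5 days after pin-tool dosing on the day after seeding. Dosing used one drug alone or a fixed anchor-drug dose plus five library-drug doses (not always all listed) in √10 steps, and values are medians of duplicate plates.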

DM3189 + Pemetrexed = compound: C1CN(CCN1)C2=CC=C(C=C2)C3=CN4C(=C(C=N4)C5=CC=NC6=CC=CC=C56)N=C3 [DM3189] + Nc1nc2[nH]cc(CCc3ccc(C(=O)N[C@@H](CCC(=O)O)C(=O)O)cc3)c2c(=O)[nH]1 [Pemetrexed] (partner 0.2 µM)
Procedure, shortened: as §1

DM3189 + Olaparib = compound: C1CN(CCN1)C2=CC=C(C=C2)C3=CN4C(=C(C=N4)C5=CC=NC6=CC=CC=C56)N=C3 [DM3189] + O=C(c1cc(Cc2n[nH]c(=O)c3ccccc23)ccc1F)N1CCN(C(=O)C2CC2)CC1 [Olaparib] (partner 8 µM)
Procedure, shortened: as §1

DM3189 + Tozasertib = compound: C1CN(CCN1)C2=CC=C(C=C2)C3=CN4C(=C(C=N4)C5=CC=NC6=CC=CC=C56)N=C3 [DM3189] + Cc1cc(Nc2cc(N3CCN(C)CC3)nc(Sc3ccc(NC(=O)C4CC4)cc3)n2)n[nH]1 [Tozasertib] (partner 0.1 µM)
Procedure, shortened: as §1

DM3189 + Decitabine = compound: C1CN(CCN1)C2=CC=C(C=C2)C3=CN4C(=C(C=N4)C5=CC=NC6=CC=CC=C56)N=C3 [DM3189] + Nc1ncn([C@H]2C[C@H](O)[C@@H](CO)O2)c(=O)n1 [Decitabine] (partner 2 µM)
Procedure, shortened: as §1

DM3189 + Trametinib = compound: C1CN(CCN1)C2=CC=C(C=C2)C3=CN4C(=C(C=N4)C5=CC=NC6=CC=CC=C56)N=C3 [DM3189] + CC(=O)Nc1cccc(-n2c(=O)n(C3CC3)c(=O)c3c(Nc4ccc(I)cc4F)n(C)c(=O)c(C)c32)c1 [Trametinib] (partner 0.02 µM)
Procedure, shortened: as §1

DM3189 + Palbociclib = compound: C1CN(CCN1)C2=CC=C(C=C2)C3=CN4C(=C(C=N4)C5=CC=NC6=CC=CC=C56)N=C3 [DM3189] + CC(=O)c1c(C)c2cnc(Nc3ccc(N4CCNCC4)cn3)nc2n(C2CCCC2)c1=O [Palbociclib] (partner 0.5 µM)
Procedure, shortened: as §1

DM3189 + AZD7762 = compound: C1CN(CCN1)C2=CC=C(C=C2)C3=CN4C(=C(C=N4)C5=CC=NC6=CC=CC=C56)N=C3 [DM3189] + NC(=O)Nc1cc(-c2cccc(F)c2)sc1C(=O)N[C@H]1CCCNC1 [AZD7762] (partner 0.2 µM)
Procedure, shortened: as §1

DM3189 + OSI-027 = compound: C1CN(CCN1)C2=CC=C(C=C2)C3=CN4C(=C(C=N4)C5=CC=NC6=CC=CC=C56)N=C3 [DM3189] + COc1cccc2cc(-c3nc([C@H]4CC[C@H](C(=O)O)CC4)n4ncnc(N)c34)[nH]c12 [OSI-027] (partner 0.5 µM)
Procedure, shortened: as §1

DM3189 + Bortezomib = compound: C1CN(CCN1)C2=CC=C(C=C2)C3=CN4C(=C(C=N4)C5=CC=NC6=CC=CC=C56)N=C3 [DM3189] + CC(C)C[C@H](NC(=O)[C@H](Cc1ccccc1)NC(=O)c1cnccn1)B(O)O [Bortezomib] (partner 0.002 µM)
Procedure, shortened: as §1

DM3189 + Pictilisib = compound: C1CN(CCN1)C2=CC=C(C=C2)C3=CN4C(=C(C=N4)C5=CC=NC6=CC=CC=C56)N=C3 [DM3189] + CS(=O)(=O)N1CCN(Cc2cc3nc(-c4cccc5[nH]ncc45)nc(N4CCOCC4)c3s2)CC1 [Pictilisib] (partner 1 µM)
Procedure, shortened: as §1

DM3189 + Navitoclax = compound: C1CN(CCN1)C2=CC=C(C=C2)C3=CN4C(=C(C=N4)C5=CC=NC6=CC=CC=C56)N=C3 [DM3189] + CC1(C)CCC(c2ccc(Cl)cc2)=C(CN2CCN(c3ccc(C(=O)NS(=O)(=O)c4ccc(N[C@H](CCN5CCOCC5)CSc5ccccc5)c(S(=O)(=O)C(F)(F)F)c4)cc3)CC2)C1 [Navitoclax] (partner 0.5 µM)
Procedure, shortened: as §1

DM3189 + Foretinib = compound: C1CN(CCN1)C2=CC=C(C=C2)C3=CN4C(=C(C=N4)C5=CC=NC6=CC=CC=C56)N=C3 [DM3189] + COc1cc2c(Oc3ccc(NC(=O)C4(C(=O)Nc5ccc(F)cc5)CC4)cc3F)ccnc2cc1OCCCN1CCOCC1 [Foretinib] (partner 0.25 µM)
Procedure, shortened: as §1

DM3189 + Lapatinib = compound: C1CN(CCN1)C2=CC=C(C=C2)C3=CN4C(=C(C=N4)C5=CC=NC6=CC=CC=C56)N=C3 [DM3189] + CS(=O)(=O)CCNCc1ccc(-c2ccc3ncnc(Nc4ccc(OCc5cccc(F)c5)c(Cl)c4)c3c2)o1 [Lapatinib] (partner 2 µM)
Procedure, shortened: as §1

DM3189 + Crizotinib = compound: C1CN(CCN1)C2=CC=C(C=C2)C3=CN4C(=C(C=N4)C5=CC=NC6=CC=CC=C56)N=C3 [DM3189] + C[C@@H](Oc1cc(-c2cnn(C3CCNCC3)c2)cnc1N)c1c(Cl)ccc(F)c1Cl [Crizotinib] (partner 1 µM)
Procedure, shortened: as §1

DM3189 + Linsitinib = compound: C1CN(CCN1)C2=CC=C(C=C2)C3=CN4C(=C(C=N4)C5=CC=NC6=CC=CC=C56)N=C3 [DM3189] + C[C@]1(O)C[C@@H](c2nc(-c3ccc4ccc(-c5ccccc5)nc4c3)c3c(N)nccn32)C1 [Linsitinib] (partner 1 µM)
Procedure, shortened: as §1

DM3189 + Alpelisib = compound: C1CN(CCN1)C2=CC=C(C=C2)C3=CN4C(=C(C=N4)C5=CC=NC6=CC=CC=C56)N=C3 [DM3189] + Cc1nc(NC(=O)N2CCC[C@H]2C(N)=O)sc1-c1ccnc(C(C)(C)C(F)(F)F)c1 [Alpelisib] (partner 2 µM)
Procedure, shortened: as §1

In the case of NCI-H1648, the relative viability (DM3189; 0.08 µM) is reported as 0.798, the relative viability (DM3189; 0.253 µM) is reported as 0.947 and the relative viability (DM3189; 0.8 µM) is reported as 0.962. The relative viability (DM3189; 2.53 µM) was 0.661, the relative viability (DM3189 + Vorinostat; first compound 0.08 µM) was 0.453 and the relative viability (DM3189 + Vorinostat; first compound 0.253 µM) was 0.637. For the same cell line, the relative viability (DM3189 + Vorinostat; first compound 0.8 µM) was 0.421, the relative viability (DM3189 + Vorinostat; first compound 2.53 µM) was 0.391 and the relative viability (DM3189 + Pemetrexed; first compound 0.08 µM) was 0.893. For the same cell line, the relative viability (DM3189 + Pemetrexed; first compound 0.253 µM) was 0.615, the relative viability (DM3189 + Pemetrexed; first compound 0.8 µM) was 0.596 and the relative viability (DM3189 + Pemetrexed; first compound 2.53 µM) was 0.577. The relative viability (DM3189 + Olaparib; first compound 0.08 µM) was 1.16, the relative viability (DM3189 + Olaparib; first compound 0.253 µM) was 0.881 and the relative viability (DM3189 + Olaparib; first compound 0.8 µM) was 0.749. For the same cell line, the relative viability (DM3189 + Olaparib; first compound 2.53 µM) was 0.862, the relative viability (DM3189 + Tozasertib; first compound 0.253 µM) was 0.565 and the relative viability (DM3189 + Tozasertib; first compound 0.8 µM) was 0.39. For the same cell line, the relative viability (DM3189 + Tozasertib; first compound 2.53 µM) was 0.464, the relative viability (DM3189 + Decitabine; first compound 0.08 µM) was 0.631 and the relative viability (DM3189 + Decitabine; first compound 0.253 µM) was 0.53. For the same cell line, the relative viability (DM3189 + Decitabine; first compound 0.8 µM) was 0.462, the relative viability (DM3189 + Decitabine; first compound 2.53 µM) was 0.438 and the relative viability (DM3189 + Trametinib; first compound 0.08 µM) was 0.434. The relative viability (DM3189 + Trametinib; first compound 0.253 µM) was 0.51, the relative viability (DM3189 + Trametinib; first compound 0.8 µM) was 0.61 and the relative viability (DM3189 + Trametinib; first compound 2.53 µM) was 0.671. For the same cell line, the relative viability (DM3189 + Palbociclib; first compound 0.08 µM) was 0.274, the relative viability (DM3189 + Palbociclib; first compound 0.253 µM) was 0.226 and the relative viability (DM3189 + Palbociclib; first compound 0.8 µM) was 0.271. It also gave a relative viability (DM3189 + Palbociclib; first compound 2.53 µM) of 0.364, a relative viability (DM3189 + AZD7762; first compound 0.08 µM) of 0.681 and a relative viability (DM3189 + AZD7762; first compound 0.253 µM) of 0.592. It also gave a relative viability (DM3189 + AZD7762; first compound 0.8 µM) of 0.562, a relative viability (DM3189 + AZD7762; first compound 2.53 µM) of 0.576 and a relative viability (DM3189 + OSI-027; first compound 0.253 µM) of 0.272. It also gave a relative viability (DM3189 + OSI-027; first compound 0.8 µM) of 0.227 and a relative viability (DM3189 + OSI-027; first compound 2.53 µM) of 0.28.

Cell Line Calu-6 has a relative viability (DM3189; 0.08 µM) of 1.03, a relative viability (DM3189; 0.253 µM) of 0.966 and a relative viability (DM3189; 0.8 µM) of 0.812. It also gave a relative viability (DM3189; 2.53 µM) of 1.03, a relative viability (DM3189 + Bortezomib; first compound 0.08 µM) of 0.997 and a relative viability (DM3189 + Bortezomib; first compound 0.253 µM) of 0.941. For the same cell line, the relative viability (DM3189 + Bortezomib; first compound 0.8 µM) was 0.816, the relative viability (DM3189 + Bortezomib; first compound 2.53 µM) was 0.784 and the relative viability (DM3189 + Pictilisib; first compound 0.08 µM) was 0.876. It also gave a relative viability (DM3189 + Pictilisib; first compound 0.253 µM) of 0.658, a relative viability (DM3189 + Pictilisib; first compound 0.8 µM) of 0.657 and a relative viability (DM3189 + Pictilisib; first compound 2.53 µM) of 0.692. For the same cell line, the relative viability (DM3189 + Navitoclax; first compound 0.08 µM) was 0.819, the relative viability (DM3189 + Navitoclax; first compound 0.253 µM) was 0.678 and the relative viability (DM3189 + Navitoclax; first compound 0.8 µM) was 0.705. It also gave a relative viability (DM3189 + Navitoclax; first compound 2.53 µM) of 0.486, a relative viability (DM3189 + Foretinib; first compound 0.08 µM) of 0.901 and a relative viability (DM3189 + Foretinib; first compound 0.253 µM) of 0.768. The relative viability (DM3189 + Foretinib; first compound 0.8 µM) was 0.715, the relative viability (DM3189 + Foretinib; first compound 2.53 µM) was 0.765 and the relative viability (DM3189 + Olaparib; first compound 0.08 µM) was 0.625. The relative viability (DM3189 + Olaparib; first compound 0.253 µM) was 0.529, the relative viability (DM3189 + Olaparib; first compound 0.8 µM) was 0.45 and the relative viability (DM3189 + Olaparib; first compound 2.53 µM) was 0.608. It also gave a relative viability (DM3189 + Lapatinib; first compound 0.08 µM) of 0.998, a relative viability (DM3189 + Lapatinib; first compound 0.253 µM) of 0.905 and a relative viability (DM3189 + Lapatinib; first compound 0.8 µM) of 0.822. The relative viability (DM3189 + Lapatinib; first compound 2.53 µM) was 0.885, the relative viability (DM3189 + Crizotinib; first compound 0.08 µM) was 0.895 and the relative viability (DM3189 + Crizotinib; first compound 0.253 µM) was 0.788. It also gave a relative viability (DM3189 + Crizotinib; first compound 0.8 µM) of 0.732, a relative viability (DM3189 + Crizotinib; first compound 2.53 µM) of 0.544 and a relative viability (DM3189 + Linsitinib; first compound 0.08 µM) of 0.975. It also gave a relative viability (DM3189 + Linsitinib; first compound 0.253 µM) of 0.958, a relative viability (DM3189 + Linsitinib; first compound 0.8 µM) of 0.703 and a relative viability (DM3189 + Linsitinib; first compound 2.53 µM) of 0.763. It also gave a relative viability (DM3189 + Alpelisib; first compound 0.08 µM) of 1.06, a relative viability (DM3189 + Alpelisib; first compound 0.253 µM) of 0.855 and a relative viability (DM3189 + Alpelisib; first compound 0.8 µM) of 0.702. It also gave a relative viability (DM3189 + Alpelisib; first compound 2.53 µM) of 0.77.
